According to ChEMBL document CHEMBL5696441 (Nat Chem Biol, 2011):

Key:
[1] = system: Tyrosine-protein kinase ABL1 (Homo sapiens), P00519 [H396P]; assay: Inhibition of ABL1 H396P mutant (unknown origin) assessed as remaining activity at 1 uM by Kinome scan method relative to control
[2] = biological target: CDK2/Cyclin A2 (Homo sapiens) (UniProt P24941+P20248); assay: Inhibition of human CDK2/CycA2 assessed as residual activity at 1 uM using RBER-CHKtide as substrate in presence of 33P-ATP by ProQinase assay relative to control; type: protein-complex assay
[3] = biological target: CYP1A (Homo sapiens, UniProt P04798+P05177); assay: Inhibition of CYP1A (unknown origin) at 10 uM relative to control; type: ADME, protein assay
[4] = biological target: Ribosomal protein S6 kinase alpha-4 (Homo sapiens) (UniProt O75676); assay: Inhibition of human RPS6KA4 assessed as residual activity at 1 uM using RBER-CHKtide as substrate in presence of 33P-ATP by ProQinase assay relative to control
[5] = biological target: Ribosomal protein S6 kinase alpha-1 (Homo sapiens) (UniProt Q15418); assay: Inhibition of N-terminal kinase domain RPS6KA1 (unknown origin) assessed as remaining activity at 1 uM by Kinome scan method relative to control
[6] = biological target: Tyrosine-protein kinase ZAP-70 (Homo sapiens) (UniProt P43403); assay: Inhibition of ZAP70 (unknown origin) assessed as remaining activity at 1 uM by Kinome scan method relative to control
[7] = biological target: Ephrin type-B receptor 3 (Homo sapiens) (UniProt P54753); assay: Inhibition of human EPHB3 assessed as residual activity at 1 uM using polyEY as substrate in presence of 33P-ATP by ProQinase assay relative to control
[8] = biological target: Leukocyte tyrosine kinase receptor (Homo sapiens) (UniProt P29376); assay: Inhibition of human LTK assessed as residual activity at 1 uM using polyEY as substrate in presence of 33P-ATP by ProQinase assay relative to control
[9] = biological target: Serine/threonine-protein kinase SIK1 (Homo sapiens) (UniProt P57059); assay: Inhibition of SIK (unknown origin) assessed as remaining activity at 1 uM by Kinome scan method relative to control
[10] = Anti-inflammatory activity against human derived medium respond PBMC cells assessed as inhibition in stimulated IL-13 cytokine release incubated for 2 hrs in the presence of LPS/SEB/aCD28 by Luminex based sandwich immunoassay; type: functional, cell-based
[11] = Anti-inflammatory activity against human derived high respond PBMC cells assessed as inhibition in stimulated IL-1beta cytokine release incubated for 2 hrs in the presence of LPS/SEB/aCD28 by Luminex based sandwich immunoassay; type: functional, cell-based
[12] = biological target: Tyrosine-protein kinase JAK2 (Homo sapiens) (UniProt O60674); assay: Inhibition of human JAK2 assessed as residual activity at 1 uM using poly(Ala,Glu,Lys,Tyr)6:2:5:1 as substrate in presence of 33P-ATP by ProQinase assay relative to control
[13] = biological target: G protein-coupled receptor kinase 6 (Homo sapiens) (UniProt P43250); assay: Inhibition of human GRK6 assessed as residual activity at 1 uM using casein as substrate in presence of 33P-ATP by ProQinase assay relative to control
[14] = Anti-inflammatory activity against human derived medium respond PBMC cells assessed as inhibition in stimulated TARC chemokine release incubated for 2 hrs in the presence of LPS/SEB/aCD28 by Luminex based sandwich immunoassay; type: functional, cell-based
[15] = biological target: Cyclin-dependent kinase 4/cyclin D1 (Homo sapiens) (UniProt P11802+P24385); assay: Inhibition of human CDK4/CyclinD1 assessed as residual activity at 1 uM using RBER-CHKtide as substrate in presence of 33P-ATP by ProQinase assay relative to control; type: protein-complex assay
[16] = system: Tyrosine-protein kinase ABL1 (Homo sapiens), P00519 [Y253F]; assay: Inhibition of ABL1 Y253F mutant (unknown origin) assessed as remaining activity at 1 uM by Kinome scan method relative to control
[17] = biological target: Mitogen-activated protein kinase kinase kinase kinase 4 (Homo sapiens) (UniProt O95819); assay: Inhibition of human MAP4K4 assessed as residual activity at 1 uM using casein as substrate in presence of 33P-ATP by ProQinase assay relative to control
Mitogen-activated protein kinase kinase kinase kinase 4 (Homo sapiens), sequence (O95819 2-1239 limits assumed): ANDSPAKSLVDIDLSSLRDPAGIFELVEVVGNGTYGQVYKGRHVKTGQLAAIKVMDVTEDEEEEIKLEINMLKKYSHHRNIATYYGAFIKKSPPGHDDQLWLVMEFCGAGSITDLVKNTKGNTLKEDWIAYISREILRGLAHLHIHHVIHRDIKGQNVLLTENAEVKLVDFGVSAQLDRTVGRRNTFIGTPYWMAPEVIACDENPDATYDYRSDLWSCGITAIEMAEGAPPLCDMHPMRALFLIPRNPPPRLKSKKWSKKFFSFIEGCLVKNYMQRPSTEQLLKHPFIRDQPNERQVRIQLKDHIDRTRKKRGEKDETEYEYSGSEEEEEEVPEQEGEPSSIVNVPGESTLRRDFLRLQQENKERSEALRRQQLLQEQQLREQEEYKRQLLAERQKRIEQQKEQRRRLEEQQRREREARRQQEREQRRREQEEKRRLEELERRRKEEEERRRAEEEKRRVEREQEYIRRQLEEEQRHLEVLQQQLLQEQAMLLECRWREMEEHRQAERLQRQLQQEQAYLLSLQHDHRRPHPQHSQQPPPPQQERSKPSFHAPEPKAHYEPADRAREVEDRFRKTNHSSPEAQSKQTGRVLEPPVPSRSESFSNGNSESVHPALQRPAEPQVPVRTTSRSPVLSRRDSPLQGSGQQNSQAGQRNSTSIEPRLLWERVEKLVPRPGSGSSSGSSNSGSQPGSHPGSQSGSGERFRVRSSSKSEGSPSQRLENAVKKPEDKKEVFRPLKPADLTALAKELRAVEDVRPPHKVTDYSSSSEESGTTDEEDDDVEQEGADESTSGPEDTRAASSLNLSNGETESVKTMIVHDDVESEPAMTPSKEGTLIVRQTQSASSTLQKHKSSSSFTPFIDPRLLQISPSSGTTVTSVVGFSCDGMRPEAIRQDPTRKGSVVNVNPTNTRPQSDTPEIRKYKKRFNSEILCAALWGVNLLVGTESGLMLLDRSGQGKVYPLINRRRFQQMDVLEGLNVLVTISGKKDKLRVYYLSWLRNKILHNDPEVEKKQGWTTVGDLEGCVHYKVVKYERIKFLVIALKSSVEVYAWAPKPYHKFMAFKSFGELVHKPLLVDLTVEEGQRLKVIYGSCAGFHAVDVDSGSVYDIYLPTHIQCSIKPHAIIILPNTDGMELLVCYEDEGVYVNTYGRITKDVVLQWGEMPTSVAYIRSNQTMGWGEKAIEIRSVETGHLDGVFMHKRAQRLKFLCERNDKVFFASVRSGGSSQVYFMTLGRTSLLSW

[18] = biological target: Ribosomal protein S6 kinase alpha-6 (Homo sapiens) (UniProt Q9UK32); assay: Inhibition of C-terminal kinase domain RPS6KA6 (unknown origin) assessed as remaining activity at 1 uM by Kinome scan method relative to control
Ribosomal protein S6 kinase alpha-6 (Homo sapiens), sequence (Q9UK32 whole entry, the tested form may be a part): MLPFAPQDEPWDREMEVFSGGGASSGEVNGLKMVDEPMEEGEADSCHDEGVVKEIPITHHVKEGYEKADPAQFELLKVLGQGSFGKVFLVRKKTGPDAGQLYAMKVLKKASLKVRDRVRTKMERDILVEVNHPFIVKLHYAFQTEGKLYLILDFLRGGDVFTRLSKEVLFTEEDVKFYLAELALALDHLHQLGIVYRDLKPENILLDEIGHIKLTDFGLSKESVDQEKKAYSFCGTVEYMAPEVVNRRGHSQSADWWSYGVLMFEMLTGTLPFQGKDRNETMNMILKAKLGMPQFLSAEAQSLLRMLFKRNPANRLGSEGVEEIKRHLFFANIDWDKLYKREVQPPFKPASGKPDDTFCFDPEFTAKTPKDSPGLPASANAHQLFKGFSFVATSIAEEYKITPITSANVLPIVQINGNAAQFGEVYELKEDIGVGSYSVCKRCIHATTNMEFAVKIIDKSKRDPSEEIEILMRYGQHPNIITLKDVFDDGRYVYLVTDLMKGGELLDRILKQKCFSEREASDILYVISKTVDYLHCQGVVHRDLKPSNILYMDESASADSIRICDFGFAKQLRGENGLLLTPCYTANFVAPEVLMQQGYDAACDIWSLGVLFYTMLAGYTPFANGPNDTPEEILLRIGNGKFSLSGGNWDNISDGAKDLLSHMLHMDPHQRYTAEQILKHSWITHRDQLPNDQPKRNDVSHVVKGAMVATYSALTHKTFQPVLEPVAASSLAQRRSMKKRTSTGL

[19] = biological target: Calcium/calmodulin-dependent protein kinase type II subunit delta (Homo sapiens) (UniProt Q13557); assay: Inhibition of CAMK2D (unknown origin) assessed as remaining activity at 1 uM by Kinome scan method relative to control
Calcium/calmodulin-dependent protein kinase type II subunit delta (Homo sapiens), sequence (Q13557 whole entry): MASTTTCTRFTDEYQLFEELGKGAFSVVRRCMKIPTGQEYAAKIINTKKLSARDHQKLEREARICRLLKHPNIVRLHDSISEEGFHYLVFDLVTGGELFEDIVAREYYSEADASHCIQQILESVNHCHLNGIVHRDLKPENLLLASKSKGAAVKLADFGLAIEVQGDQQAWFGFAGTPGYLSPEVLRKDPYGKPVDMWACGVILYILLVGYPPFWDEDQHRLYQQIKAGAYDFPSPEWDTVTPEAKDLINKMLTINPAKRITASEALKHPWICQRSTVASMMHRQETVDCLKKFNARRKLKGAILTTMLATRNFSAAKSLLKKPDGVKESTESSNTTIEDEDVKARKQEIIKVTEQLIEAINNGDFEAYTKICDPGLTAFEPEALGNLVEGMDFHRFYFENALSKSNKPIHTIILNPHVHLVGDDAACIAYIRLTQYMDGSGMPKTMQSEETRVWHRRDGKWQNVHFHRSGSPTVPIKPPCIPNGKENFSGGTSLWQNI

[20] = system: Hepatocyte growth factor receptor (Homo sapiens), P08581 [Y1230C]; assay: Inhibition of human MET Y1230C mutant assessed as residual activity at 1 uM using poly(Ala,Glu,Lys,Tyr)6:2:5:1 as substrate in presence of 33P-ATP by ProQinase assay relative to control
[21] = biological target: Serine/threonine-protein kinase Nek11 (Homo sapiens) (UniProt Q8NG66); assay: Inhibition of human NEK11 assessed as residual activity at 1 uM using MBP as substrate in presence of 33P-ATP by ProQinase assay relative to control
Serine/threonine-protein kinase Nek11 (Homo sapiens), sequence (Q8NG66 whole entry): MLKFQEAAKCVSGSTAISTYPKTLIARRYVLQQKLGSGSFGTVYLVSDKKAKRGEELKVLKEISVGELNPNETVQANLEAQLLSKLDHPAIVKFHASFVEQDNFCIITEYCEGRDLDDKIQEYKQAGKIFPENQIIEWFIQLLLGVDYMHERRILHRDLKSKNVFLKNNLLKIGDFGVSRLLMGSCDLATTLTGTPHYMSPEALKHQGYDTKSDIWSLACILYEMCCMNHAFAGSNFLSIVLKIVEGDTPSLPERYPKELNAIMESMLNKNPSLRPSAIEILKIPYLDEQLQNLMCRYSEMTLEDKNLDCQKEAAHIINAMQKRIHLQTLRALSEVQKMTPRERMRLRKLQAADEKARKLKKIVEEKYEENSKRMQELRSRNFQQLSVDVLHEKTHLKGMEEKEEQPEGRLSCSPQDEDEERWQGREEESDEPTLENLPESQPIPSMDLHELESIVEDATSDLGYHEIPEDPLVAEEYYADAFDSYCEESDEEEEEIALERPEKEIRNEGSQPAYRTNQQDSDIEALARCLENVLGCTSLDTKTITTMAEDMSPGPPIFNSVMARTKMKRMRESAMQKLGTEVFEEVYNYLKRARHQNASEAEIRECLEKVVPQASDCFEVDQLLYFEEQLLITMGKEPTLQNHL

[22] = Anti-inflammatory activity against human derived high respond PBMC cells assessed as inhibition in stimulated IL-6 cytokine release incubated for 2 hrs in the presence of LPS/SEB/aCD28 by Luminex based sandwich immunoassay; type: functional, cell-based
[23] = biological target: Vascular endothelial growth factor receptor 2 (Homo sapiens) (UniProt P35968); assay: Inhibition of human VEGFR2 assessed as residual activity at 1 uM using polyEY as substrate in presence of 33P-ATP by ProQinase assay relative to control
[24] = system: Hepatocyte growth factor receptor (Homo sapiens), P08581 [D1228H]; assay: Inhibition of human MET D1228H mutant assessed as residual activity at 1 uM using poly(Ala,Glu,Lys,Tyr)6:2:5:1 as substrate in presence of 33P-ATP by ProQinase assay relative to control
[25] = biological target: Rho-associated protein kinase 2 (Homo sapiens) (UniProt O75116); assay: Inhibition of ROCK2 (unknown origin) assessed as remaining activity at 1 uM by Kinome scan method relative to control
Rho-associated protein kinase 2 (Homo sapiens), sequence (O75116 whole entry, looked up): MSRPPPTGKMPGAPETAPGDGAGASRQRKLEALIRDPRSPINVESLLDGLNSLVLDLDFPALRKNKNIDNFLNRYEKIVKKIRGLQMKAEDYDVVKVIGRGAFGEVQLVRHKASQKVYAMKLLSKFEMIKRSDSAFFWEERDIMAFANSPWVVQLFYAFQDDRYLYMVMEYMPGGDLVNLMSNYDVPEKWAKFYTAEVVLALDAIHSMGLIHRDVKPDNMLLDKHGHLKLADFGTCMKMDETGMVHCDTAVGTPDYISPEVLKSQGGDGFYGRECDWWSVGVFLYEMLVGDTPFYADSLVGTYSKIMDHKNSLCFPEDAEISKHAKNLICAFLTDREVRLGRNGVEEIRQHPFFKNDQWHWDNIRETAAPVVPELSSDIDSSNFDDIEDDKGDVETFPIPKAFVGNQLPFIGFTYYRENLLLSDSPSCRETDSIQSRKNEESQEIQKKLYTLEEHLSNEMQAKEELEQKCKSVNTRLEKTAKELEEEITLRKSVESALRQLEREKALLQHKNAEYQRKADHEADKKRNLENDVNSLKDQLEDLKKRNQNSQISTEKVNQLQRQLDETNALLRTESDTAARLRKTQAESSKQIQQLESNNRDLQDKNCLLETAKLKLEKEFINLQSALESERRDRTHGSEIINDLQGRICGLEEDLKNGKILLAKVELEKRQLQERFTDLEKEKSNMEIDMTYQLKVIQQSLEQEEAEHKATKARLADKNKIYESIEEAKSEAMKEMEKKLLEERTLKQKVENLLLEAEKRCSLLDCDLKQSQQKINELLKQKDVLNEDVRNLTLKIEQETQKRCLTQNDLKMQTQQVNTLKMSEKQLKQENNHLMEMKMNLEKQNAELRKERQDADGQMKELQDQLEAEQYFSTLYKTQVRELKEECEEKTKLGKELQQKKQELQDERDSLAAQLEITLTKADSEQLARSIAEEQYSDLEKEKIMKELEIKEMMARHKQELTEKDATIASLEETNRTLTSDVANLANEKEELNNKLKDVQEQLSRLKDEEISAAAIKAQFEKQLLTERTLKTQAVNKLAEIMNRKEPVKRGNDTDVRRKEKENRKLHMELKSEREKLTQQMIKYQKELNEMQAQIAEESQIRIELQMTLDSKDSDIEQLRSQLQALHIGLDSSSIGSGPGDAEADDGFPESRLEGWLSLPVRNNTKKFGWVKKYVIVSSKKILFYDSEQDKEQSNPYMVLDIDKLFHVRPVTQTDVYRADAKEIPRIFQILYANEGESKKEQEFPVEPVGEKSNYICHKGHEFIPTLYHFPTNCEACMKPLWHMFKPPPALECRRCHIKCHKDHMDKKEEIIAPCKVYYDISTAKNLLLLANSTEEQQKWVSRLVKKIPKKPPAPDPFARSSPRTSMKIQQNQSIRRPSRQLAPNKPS

[26] = biological target: Platelet-derived growth factor receptor alpha (Homo sapiens) (UniProt P16234); assay: Inhibition of human PDGFRalpha assessed as residual activity at 1 uM using Poly(Ala,Glu,Lys,Tyr)6:2:5:1 as substrate in presence of 33P-ATP by ProQinase assay relative to control
[27] = biological target: Dual specificity mitogen-activated protein kinase kinase 1 (Homo sapiens) (UniProt Q02750); assay: Inhibition of human MEK1 assessed as residual activity at 1 uM using ERK2-KR as substrate in presence of 33P-ATP by ProQinase assay relative to control
[28] = biological target: Mitogen-activated protein kinase 15 (Homo sapiens) (UniProt Q8TD08); assay: Inhibition of ERK8 (unknown origin) assessed as remaining activity at 1 uM by Kinome scan method relative to control
Mitogen-activated protein kinase 15 (Homo sapiens), sequence (Q8TD08 whole entry): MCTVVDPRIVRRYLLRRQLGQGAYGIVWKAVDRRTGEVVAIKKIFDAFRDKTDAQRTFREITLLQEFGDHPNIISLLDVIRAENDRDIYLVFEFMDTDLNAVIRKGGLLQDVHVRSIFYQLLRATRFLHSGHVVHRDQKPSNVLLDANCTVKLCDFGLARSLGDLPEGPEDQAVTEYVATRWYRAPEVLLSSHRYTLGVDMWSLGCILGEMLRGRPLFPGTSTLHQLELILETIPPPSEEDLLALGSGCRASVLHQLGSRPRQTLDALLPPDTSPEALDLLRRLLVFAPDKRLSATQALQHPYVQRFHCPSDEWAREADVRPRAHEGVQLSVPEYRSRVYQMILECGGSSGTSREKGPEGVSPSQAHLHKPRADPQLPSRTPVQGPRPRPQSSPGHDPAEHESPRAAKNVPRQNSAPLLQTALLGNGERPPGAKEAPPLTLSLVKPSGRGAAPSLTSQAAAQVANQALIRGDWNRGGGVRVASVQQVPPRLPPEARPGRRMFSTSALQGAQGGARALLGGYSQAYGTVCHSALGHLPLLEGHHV

Question: With `O=C1c2ccc(Nc3ccc(F)cc3F)cc2CCc2ccc(OC[C@H](O)CO)cc21` [Skepinone-L] as the compound, how does the Activity [1] read?
Answer: 100%

Question: And the Activity [2]?
Answer: 101%

Question: And the inhibition at 10 µM [3]?
Answer: -19%

Question: And the Activity [4]?
Answer: 107%

Question: And the Activity [5]?
Answer: 100%

Question: What about the Activity [6] of the same compound?
Answer: 100%

Question: And the Activity [7]?
Answer: 108%

Question: What about the Activity [8] of the same compound?
Answer: 97%

Question: And the Activity [9]?
Answer: 100%

Question: And the IC50 [10]?
Answer: 4380 nM

Question: What about the IC50 [11] of the same compound?
Answer: 30 nM

Question: What about the Activity [12] of the same compound?
Answer: 90%

Question: What about the Activity [13] of the same compound?
Answer: 82%

Question: What about the IC50 [14] of the same compound?
Answer: Not Active

Question: And the Activity [15]?
Answer: 92%

Question: And the Activity [16]?
Answer: 90%

Question: What about the Activity [17] of the same compound?
Answer: 79%

Question: And the Activity [18]?
Answer: 77%

Question: What about the Activity [19] of the same compound?
Answer: 100%

Question: What about the Activity [20] of the same compound?
Answer: 97%

Question: What about the Activity [21] of the same compound?
Answer: 113%

Question: What about the IC50 [22] of the same compound?
Answer: 650 nM

Question: What about the Activity [23] of the same compound?
Answer: 91%

Question: What about the Activity [24] of the same compound?
Answer: 97%

Question: What about the Activity [25] of the same compound?
Answer: 100%

Question: And the Activity [26]?
Answer: 91%

Question: And the Activity [27]?
Answer: 79%

Question: And the Activity [28]?
Answer: 99%
